Measured values from patent US7608716B2, “Pyrazolonaphthyridine derivative” (Aska Pharmaceutical Co., Ltd., priority 2002, dated 2009).

tested on: T1, PDE IV isozymes separated from U937 culture cells; test: PDE IV inhibition ([3H]-cAMP hydrolysis); assay type: biochemical; settings: cAMP 1 μM substrate, 30° C., 20 minutes
T1 construct: PDE IV isozymes as used herein were separated from U937 culture cells by using an anion exchange chromatography
Experimental: PDE IV isozymes as used herein were separated from U937 culture cells by using an anion exchange chromatography. Type IV PDE isozyme was admixed with ethylene glycol (EG) to adjust the final EG concentration to 30%, then stored at −20° C. and diluted when used. The enzymatic activity for PDE IV was measured using cAMP as a substrate.
Each test compound was dissolved in DMSO to adjust the final concentration to 1% (2.5 μl/tube).
Incubation Buffer Solution (pH7.5):
• Tris-HCl (50 mM), magnesium chloride (6 mM), dithiothreitol (2.5 mM), 5-nucleotidase (4 μg/ml), bovine serum albumin (0.23 mg/ml), and cAMP (1 μM).
A mixture of the aforementioned test compound solution and the buffer solution was incubated at 30° C. for 20 minutes. The reaction was quenched by admixing with 1 ml of anion exchange resin slurry (AG1-X8, 200-400 meshes, chloride form; Bio-Rad) to absorb unreacted substrates. After the reaction stopped, the mixture was centrifuged at 800×g for 10 minutes, and the resulting supernatant was collected with vials in 250 μl aliquots. To each vial was added 5 ml of ACS-II (scintillator, Amersham). The radioactivity was measured with a liquid scintillator counter for [^3H]-adenosine and set as the PDE IV activity.

IC50	SMILES
0.057 µM	O=C(O)c1ccc(CCc2n[nH]c3c2c(=O)n(-c2ccccc2)c2ncccc32)cc1 [Example No. 14, 3-[2-(4-carboxyphenyl)ethyl]-5-phenyl-1H-pyrazolo[4,3-c][1,8]naphthyridin-4 (5H)-one]
0.026 µM	COc1ccccc1Cc1n[nH]c2c1c(=O)n(-c1ccccc1)c1ncccc21 [Example No. 22, 3-(2-methoxybenzyl)-5-phenyl-1H-pyrazolo[4,3-c][1,8]naphthyridin-4 (5H)-one]

tested on: not given; test: not given; settings: not given

melting point	SMILES
248 to 250 °C	COc1ccc(OC)c(Cc2n[nH]c3c2c(=O)n(-c2ccccc2)c2ncccc32)c1 (hydrate or solvate) [Example No. 27, 3-(2,5-dimethoxybenzyl)-5-phenyl-1H-pyrazolo[4,3-c][1,8]naphthyridin-4 (5H)-one]
261 to 263 °C	Nc1cccc(-n2c(=O)c3c(CCc4ccncc4)n[nH]c3c3cccnc32)c1 [Example 8, 5-(3-aminophenyl)-3-[2-(pyridin-4-yl)ethyl]-1H-pyrazolo[4,3-c][1,8]naphthyridin-4 (5H)-one]
> 320 °C	O=c1c2c(Cc3cccc([N+](=O)[O-])c3)n[nH]c2c2cccnc2n1-c1ccccc1 (hydrate or solvate) [Example 25, 3-(3-nitrobenzyl)-5-phenyl-1H-pyrazolo[4,3-c][1,8]naphthyridin-4 (5H)-one]
258 to 259 °C	COc1cc(Cc2n[nH]c3c2c(=O)n(-c2ccccc2)c2ncccc32)cc(OC)c1 (hydrate or solvate) [Example 29, 3-(3,5-dimethoxybenzyl)-5-phenyl-1H-pyrazolo[4,3-c][1,8]naphthyridin-4 (5H)-one]
245 to 247 °C	O=c1c2c(CCc3cccc([N+](=O)[O-])c3)n[nH]c2c2cccnc2n1-c1ccccc1 (hydrate or solvate) [Example 15, 3-[2-(3-nitrophenyl)ethyl]-5-phenyl-1H-pyrazolo[4,3-c][1,8]naphthyridin-4 (5H)-one]
266 to 267 °C	COc1ccc(Cc2n[nH]c3c2c(=O)n(-c2ccccc2)c2ncccc32)c(OC)c1 (hydrate or solvate) [Example No. 30, 3-(2,4-dimethoxybenzyl)-5-phenyl-1H-pyrazolo[4,3-c][1,8]naphthyridin-4 (5H)-one]
> 310 °C	Nc1ccc(CCc2n[nH]c3c2c(=O)n(-c2ccccc2)c2ncccc32)cc1 (hydrate or solvate) [Example No. 13, 3-[2-(4-aminophenyl)ethyl]-5-phenyl-1H-pyrazolo[4,3-c][1,8]naphthyridin-4 (5H)-one]
219.5 to 224.5 °C	N#Cc1cccc(CCc2n[nH]c3c2c(=O)n(-c2ccccc2)c2ncccc32)c1 (hydrate or solvate) [Example 18, 3-[2-(3-cyanophenyl)ethyl]-5-phenyl-1H-pyrazolo[4,3-c][1,8]naphthyridin-4 (5H)-one]
300 to 302 °C	COc1ccc(Cc2n[nH]c3c2c(=O)n(-c2ccccc2)c2ncccc32)cc1 (hydrate or solvate) [Example No. 21, 3-(4-methoxybenzyl)-5-phenyl-1H-pyrazolo[4,3-c][1,8]naphthyridin-4 (5H)-one]
333 to 335 °C	O=c1c2c(CCc3ccccc3[N+](=O)[O-])n[nH]c2c2cccnc2n1-c1ccccc1 (hydrate or solvate) [Example 16, 3-[2-(2-nitrophenyl)ethyl]-5-phenyl-1H-pyrazolo[4,3-c][1,8]naphthyridin-4 (5H)-one]
267 to 269 °C	O=c1c2c(CCc3ccncc3)n[nH]c2c2cccnc2n1-c1ccccc1 [Example 1, 5-phenyl-3-[2-(pyridin-4-yl)ethyl]-1H-pyrazolo[4,3-c][1,8]-naphthyridin-4 (5H)-one]
306 to 307 °C	CS(=O)(=O)Nc1ccc(Cc2n[nH]c3c2c(=O)n(-c2ccccc2)c2ncccc32)cc1 [Example 49, 3-(4-methanesulfonylaminobenzyl)-5-phenyl-1H-pyrazolo[4,3-c][1,8]naphthyridin-4 (5H)-one]
260 to 262 °C	O=c1c2c(CCc3ccc([N+](=O)[O-])cc3)n[nH]c2c2cccnc2n1-c1ccccc1 (hydrate or solvate) [Example 11, 3-[2-(4-nitrophenyl)ethyl]-5-phenyl-1H-pyrazolo[4,3-c][1,8]naphthyridin-4 (5H)-one]
159 to 161 °C	O=C(O)c1cccc(CCc2n[nH]c3c2c(=O)n(-c2ccccc2)c2ncccc32)c1 [Example 38, 3-[2-(3-carboxyphenyl)ethyl]-5-phenyl-1H-pyrazolo[4,3-c][1,8]naphthyridin-4 (5H)-one]
263 to 264 °C	CCOC(=O)Cc1ccc(Cc2n[nH]c3c2c(=O)n(-c2ccccc2)c2ncccc32)cc1 (hydrate or solvate) [Example No. 32, 3-(4-ethoxycarbonylmethylbenzyl)-5-phenyl-1H-pyrazolo[4,3-c][1,8]naphthyridin-4 (5H)-one]
316 to 318 °C (dec.)	N#Cc1ccc(Cc2n[nH]c3c2c(=O)n(-c2ccccc2)c2ncccc32)cc1 (hydrate or solvate) [Example 31, 3-(4-cyanobenzyl)-5-phenyl-1H-pyrazolo[4,3-c][1,8]naphthyridin-4 (5H)-one]
300 to 305 °C	NC(=O)Nc1ccccc1CCc1n[nH]c2c1c(=O)n(-c1ccccc1)c1ncccc21 [Example 50, 5-phenyl-3-[2-(2-ureidophenyl)ethyl]-1H-pyrazolo[4,3-c][1,8]naphthyridin-4 (5H)-one]
318 to 320 °C	O=C(O)c1ccc(CCc2n[nH]c3c2c(=O)n(-c2ccccc2)c2ncccc32)cc1 (hydrate or solvate) [Example No. 14, 3-[2-(4-carboxyphenyl)ethyl]-5-phenyl-1H-pyrazolo[4,3-c][1,8]naphthyridin-4 (5H)-one]
284 to 285 °C	CS(=O)(=O)Nc1ccc(CCc2n[nH]c3c2c(=O)n(-c2ccccc2)c2ncccc32)cc1 [Example 48, 3-[2-(4-methanesulfonylaminophenyl)ethyl]-5-phenyl-1H-pyrazolo[4,3-c][1,8]naphthyridin-4 (5H)-one]
306 °C (dec.)	O=c1c2c(Cc3cccnc3)n[nH]c2c2cccnc2n1-c1ccccc1 [Example 4, 5-phenyl-3-(pyridin-3-yl)methyl-1H-pyrazolo[4,3-c][1,8]-naphthyridin-4 (5H)-one]
322 °C (dec.)	O=c1c2c(CCc3cccnc3)n[nH]c2c2cccnc2n1-c1ccccc1 [Example 3, 5-phenyl-3-[2-(pyridin-3-yl)ethyl]-1H-pyrazolo[4,3-c][1,8]-naphthyridin-4 (5H)-one]
315.5 to 316.5 °C	N#Cc1ccccc1CCc1n[nH]c2c1c(=O)n(-c1ccccc1)c1ncccc21 (hydrate or solvate) [Example 17, 3-[2-(2-cyanophenyl)ethyl]-5-phenyl-1H-pyrazolo[4,3-c][1,8]naphthyridin-4 (5H)-one]
282 to 284 °C	O=c1c2c(Cc3cccs3)n[nH]c2c2cccnc2n1-c1ccccc1 (hydrate or solvate) [Example No. 23, 3-(2-thienylmethyl)-5-phenyl-1H-pyrazolo[4,3-c][1,8]naphthyridin-4 (5H)-one]
278 to 280 °C	O=c1c2c(Cc3ccccc3O)n[nH]c2c2cccnc2n1-c1ccccc1 [Example 42, 3-(2-hydroxybenzyl)-5-phenyl-1H-pyrazolo[4,3-c][1,8]-naphthyridin-4 (5H)-one]
311.5 to 312.5 °C	CS(=O)(=O)c1ccc(Cc2n[nH]c3c2c(=O)n(-c2ccccc2)c2ncccc32)cc1 (hydrate or solvate) [Example 34, 3-(4-methylsulfonylbenzyl)-5-phenyl-1H-pyrazolo[4,3-c][1,8]naphthyridin-4 (5H)-one]
230 to 232 °C	COc1ccc(Cc2n[nH]c3c2c(=O)n(-c2ccccc2)c2ncccc32)cc1OC (hydrate or solvate) [Example 28, 3-(3,4-dimethoxybenzyl)-5-phenyl-1H-pyrazolo[4,3-c][1,8]naphthyridin-4 (5H)-one]
234 to 236 °C	COc1cccc(Cc2n[nH]c3c2c(=O)n(-c2ccccc2)c2ncccc32)c1 (hydrate or solvate) [Example 20, 3-(3-methoxybenzyl)-5-phenyl-1H-pyrazolo[4,3-c][1,8]naphthyridin-4 (5H)-one]
302 to 308 °C	O=C(O)c1ccccc1CCc1n[nH]c2c1c(=O)n(-c1ccccc1)c1ncccc21 (hydrate or solvate) [Example 37, 3-[2-(2-carboxyphenyl)ethyl]-5-phenyl-1H-pyrazolo[4,3-c][1,8]naphthyridin-4 (5H)-one]
276 to 277 °C	COc1ccccc1Cc1n[nH]c2c1c(=O)n(-c1ccccc1)c1ncccc21 (hydrate or solvate) [Example No. 22, 3-(2-methoxybenzyl)-5-phenyl-1H-pyrazolo[4,3-c][1,8]naphthyridin-4 (5H)-one]
318 to 320 °C (dec.)	O=c1c2c(Cc3ccccc3[N+](=O)[O-])n[nH]c2c2cccnc2n1-c1ccccc1 (hydrate or solvate) [Example No. 26, 3-(2-nitrobenzyl)-5-phenyl-1H-pyrazolo[4,3-c][1,8]naphthyridin-4 (5H)-one]
